In patent publication US20260297035A1, “PROTEIN KINASE INHIBITORS AND USES THEREOF” (DELiver Therapeutics, Inc., priority 2023, published 2026):
pIC50: −log10 of the molar value. Structures can show the parent of a compound that is named as a salt.

Legend:
IMR90 fibroblasts, IL-6 = assay: Senomorphic activity: IL-6 reduction (ELISA) in senescent IMR90 fibroblasts; assay type: cell-based, human; settings: for IL-6 reduction potency compared with pacritinib: compared with control drug pacritinib
Protocol: Senomorphic activity of compounds were assessed by determining whether the compounds could inhibit the senescence-associated secretory phenotype (SASP) in senescent cells, which is associated with overproduction and secretion of pro-inflammatory factors. Although many of these factors are associated primarily with macrophages and monocytes, they can also be made by a variety of senescent and activated cell types, such as fibroblasts. Specifically, IMR90 fibroblasts are known to overproduce these factors, especially when rendered senescent.
(§1) In the assay, IMR90 fibroblasts were plated at a density of 3E6 cells in a T175 tissue culture (TC)-treated flask. The flasks were placed into a tissue culture incubator and cells were allowed to adhere to the bottom of the wells for 24 hours. After cell adherence, the TC-treated flasks containing the cells were placed into a MultiRad225 X-ray irradiator, where cells were exposed to 10 grays (Gy) of ionizing […] irradiation. After irradiation, flasks were returned to the tissue culture incubator for 7 days, refreshing the cell media every 3 days.
(§2) After the 7-day incubation period that allowed full senescence transformation, cells were detached from the TC-treated flasks using 0.25% trypsin-EDTA solution. Cells were then split, and two experiments were conducted simultaneously: (1) verification of senescence induction via β-galactosidase staining (a senescent cell marker) and (2) analysis of senomorphic activity of compounds.
For verification of senescence induction, 2.5E4 cells were plated in TC-treated 6-well plates. After overnight adherence to the TC-plates, cells were fixed and stained for β-galactosidase accumulation following the manufacturer's standard protocol (e.g., Millipore Sigma, Senescence Cells Histochemical Staining Kit, CS0030-1KT). Brightfield microscopy was used to image the cells and ImageJ software was used to calculate the percentage of senescent cells per well. Non-irradiated IM90 fibroblasts were used as a non-senescent control.
To test the senomorphic activity of compounds, 1E4 cells were plated in 96-well plates. After overnight adherence to the 96-well plates, compounds were added in half-log dilutions to the wells containing the cells. Compounds that were effective inhibitors of JAK2 and were not effective inhibitors of JAK1 were assayed (JAK2 selective inhibitors). Twenty-four hours after compounds were added, cell culture media was collected and analyzed by various enzyme linked immunosorbent assays (ELISAs) for the expression of SASP-associated cytokines, including IL-6, TGF-beta, and TNF-alpha. The manufacturer's protocol was followed for ELISA analysis (e.g., Abcam, Human IL-6 ELISA kit, ab178013). Cytokine levels were compared to untreated controls and reduction of cytokine production was plotted and calculated using GraphPad Prism analysis software.

[1] = Relative viability (CellTiterGlo) of senescent IMR90 fibroblasts; assay type: cell-based, human; settings: human, senescent imr90 fibroblasts
Protocol: as §1, §2
(§3) Cells also were measured for relative viability to generate cytotoxicity curves associated with the varying concentrations of compounds. […] LD50 values were measured by normalizing luminescence intensity to the lowest drug concentration. GraphPad Prism was used to plot and calculate LD50 values from the cytotoxic kill curves. Curves were fit to a non-linear regression model, with compound concentration vs. response and variable slope (four parameters).

IMR90 fibroblasts = assay: as above; assay type: cell-based, human; settings: at IL-6 reducing concentrations
Protocol: as §1, §2, §3

ABL1(wt) = ABL1(wt) (Homo sapiens, UniProt P00519); settings: cited from earlier work
ABL1 E255K = settings: role: cofactor; peptide substrate Tyr 02; read-out: ATP Km app; cited from earlier work
ABL1 F317I = settings: role: cofactor; peptide substrate Tyr 02; read-out: ATP Km app; cited from earlier work
ABL1 F317L = settings: cited from earlier work
ABL1 G250E = settings: role: cofactor; peptide substrate Tyr 02; read-out: ATP Km app; cited from earlier work
ABL1 T315I = molecular target: T1, ABL1 T315I (Homo sapiens, UniProt P00519, T315I); settings: role: cofactor; peptide substrate Tyr 02; read-out: ATP Km app; cited from earlier work
T1 construct: The ABL1 variant polypeptides utilized contained the same polypeptide as the “isoahABL1(wt)” polypeptide except that each contained one corresponding amino acid substitution

ABL1 Y253F = settings: role: cofactor; peptide substrate Tyr 02; read-out: ATP Km app; cited from earlier work
AURKA (Aurora A) = settings: role: cofactor; peptide substrate Ser/Thr 01; read-out: ATP Km app; cited from earlier work
AURKB (Aurora B) = settings: role: cofactor; peptide substrate Ser/Thr 01; read-out: ATP Km app; cited from earlier work
AURKC (Aurora C) = settings: role: cofactor; peptide substrate Ser/Thr 19; read-out: ATP Km app; cited from earlier work
BMX = settings: role: cofactor; peptide substrate Tyr 01; read-out: ATP Km app; cited from earlier work
BTK = settings: cited from earlier work
EPHA1 = settings: cited from earlier work
EPHA2 = settings: role: cofactor; peptide substrate Tyr 01; read-out: ATP Km app; cited from earlier work
EPHA5 = settings: cited from earlier work
EPHA8 = settings: role: cofactor; peptide substrate Tyr 02; read-out: ATP Km app; cited from earlier work
EPHB1 = settings: role: cofactor; peptide substrate Tyr 02; read-out: ATP Km app; cited from earlier work
EPHB2 = settings: cited from earlier work
ITK = settings: role: cofactor; peptide substrate Tyr 01; read-out: ATP Km app; cited from earlier work
TXK = settings: cited from earlier work
JAK1 = settings: role: cofactor; peptide substrate Tyr 06; read-out: ATP Km app; cited from earlier work
JAK2 [2] = settings: role: cofactor; peptide substrate Tyr 06; read-out: ATP Km app; cited from earlier work
JAK3 = settings: role: cofactor; peptide substrate Tyr 06; read-out: ATP Km app; cited from earlier work
TYK2 = settings: role: cofactor; peptide substrate Tyr 03; read-out: ATP Km app; cited from earlier work
NTRK1 (TRKA) = settings: role: cofactor; peptide substrate Tyr 01; read-out: ATP Km app; cited from earlier work
NTRK2 (TRKB) = settings: role: cofactor; peptide substrate Tyr 01; read-out: ATP Km app; cited from earlier work
NTRK3 (TRKC) = settings: role: cofactor; peptide substrate Tyr 01; read-out: ATP Km app; cited from earlier work
TNK1 = settings: role: cofactor; peptide substrate Ser/Thr 13; read-out: ATP Km app; cited from earlier work
ROS1 = settings: cited from earlier work
RET = settings: cited from earlier work
RET-Y791F = settings: role: cofactor; peptide substrate Tyr 02; read-out: ATP Km app; cited from earlier work
RET-V804E = settings: cited from earlier work
RET-V804L = settings: role: cofactor; peptide substrate Tyr 02; read-out: ATP Km app; cited from earlier work
RET-A883F = settings: role: cofactor; peptide substrate Tyr 04; read-out: ATP Km app; cited from earlier work
RET-S891A = settings: role: cofactor; peptide substrate Tyr 06; read-out: ATP Km app; cited from earlier work
ABL2 (Arg) = settings: cited from earlier work
PTK2B (FAK2) = settings: cited from earlier work
SRC = settings: cited from earlier work
SRC-N1 = settings: cited from earlier work
LCK = settings: cited from earlier work
JAK2 [3] = settings: cited from earlier work
TEC = settings: control inhibitor; Tracer 178 at 1 nM; cited from earlier work
DDR2-T654M = settings: control inhibitor; Tracer 178 at 100 nM; cited from earlier work
RET-V804M = settings: control inhibitor; Tracer 236 at 5 nM; cited from earlier work
RET-M918T = settings: control inhibitor; Tracer 236 at 10 nM; cited from earlier work
TNK2 (ACK) = settings: control inhibitor; Tracer 236 at 30 nM; cited from earlier work
[4] = role: cofactor, peptide substrate Tyr 02, read-out: ATP Km app
[5] = role: cofactor, peptide substrate Tyr 01, read-out: ATP Km app
[6] = control inhibitor, Tyr 02, ATP 10 μM
[7] = control inhibitor, Tyr02, ATP 25 uM
[8] = control inhibitor, Tyr 02, ATP 50 uM

## Cc1ccc(Nc2ncc3cccc(-c4ccc(F)cc4OC(C)C)c3n2)cc1N [Cmpd51, N1-(8-(4-fluoro-2-isopropoxyphenyl)quinazolin-2-yl)-4-methylbenzene-1,3-diamine hydrochloride]
IMR90 fibroblasts, IL-6
  IL-6 reduction (in words): potent IL-6 reduction at sub-toxic drug levels
  IL-6 reduction potency compared with pacritinib: more potent than the control drug pacritinib
IMR90 fibroblasts, IL-6; Homo sapiens, IMR-90, 0.4 nM, 24 hours, read-out: IL-6 production reduction
  inhibition at 0.0004 µM: 67.5%
IMR90 fibroblasts, IL-6; Homo sapiens, IMR-90, 1250 nM, 24 hours, read-out: IL-6 production reduction
  inhibition at 1.25 µM: 71.6%
[1]; at 0.4 nM and 1250 nM
  viability: 100%
IMR90 fibroblasts
  cell toxicity (in words): without cell toxicity

## Nc1ncnc2c1ncn2[C@@H]1O[C@H](COP(=O)(O)OP(=O)(O)OP(=O)(O)O)[C@@H](O)[C@H]1O [ATP]
ABL1(wt); [4]
  Km: 12 µM
ABL1 E255K
  Km: 4.2 µM
ABL1 F317I
  Km: 15 µM
ABL1 F317L; [4]
  Km: 14 µM
ABL1 G250E
  Km: 5.4 µM
ABL1 T315I
  Km: 2.8 µM
ABL1 Y253F
  Km: 11.8 µM
AURKA (Aurora A)
  Km: 10 µM
AURKB (Aurora B)
  Km: 81 µM
AURKC (Aurora C)
  Km: 26 µM
BMX
  Km: 107 µM
BTK; [5]
  Km: 36 µM
EPHA1; [4]
  Km: 18.5 µM
EPHA2
  Km: 65.4 µM
EPHA5; [5]
  Km: 129 µM
EPHA8
  Km: 123 µM
EPHB1
  Km: 61.4 µM
EPHB2; [4]
  Km: 66 µM
ITK
  Km: 5.6 µM
TXK; role: cofactor, peptide substrate Tyr 06, read-out: ATP Km app
  Km: 96 µM
JAK1
  Km: 87 µM
JAK2 [2]
  Km: 31 µM
JAK3
  Km: 14 µM
TYK2
  Km: 23 µM
NTRK1 (TRKA)
  Km: 425 µM
NTRK2 (TRKB)
  Km: 22 µM
NTRK3 (TRKC)
  Km: 54 µM
TNK1
  Km: 237 µM
ROS1; [5]
  Km: 61.4 µM
RET; [4]
  Km: 11 µM
RET-Y791F
  Km: 12 µM
RET-V804E; role: cofactor, peptide substrate Tyr 04, read-out: ATP Km app
  Km: 50 µM
RET-V804L
  Km: 5 µM
RET-A883F
  Km: 10 µM
RET-S891A
  Km: 8 µM
ABL2 (Arg); [4]
  Km: 30 µM
PTK2B (FAK2); [5]
  Km: 5 µM
SRC; [4]
  Km: 50 µM
SRC-N1; [4]
  Km: 50 µM
LCK; [4]
  Km: 45 µM

## C[C@@H]1CCN(C(=O)CC#N)C[C@@H]1N(C)c1ncnc2[nH]ccc12 [tofacitinib]
JAK2 [3]
  JAK2 selectivity: not selective inhibitors of JAK2 PK

## Cc1nc(Nc2ncc(C(=O)Nc3c(C)cccc3Cl)s2)cc(N2CCN(CCO)CC2)n1 [dasatinib]
TEC
  pIC50: […]
DDR2-T654M
  pIC50: 6.86

## C=CC(=O)Nc1cc(Nc2ncc3cccc(-c4ccc(F)cc4OC(C)C)c3n2)ccc1C [Cmpd53, N-(5-((8-(4-fluoro-2-isopropoxyphenyl)quinazolin-2-yl)amino)-2-methylphenyl)acrylamide]
IMR90 fibroblasts, IL-6
  IL-6 reduction (in words): potent IL-6 reduction at sub-toxic drug levels
  IL-6 reduction potency compared with pacritinib: more potent than the control drug pacritinib
IMR90 fibroblasts, IL-6; Homo sapiens, IMR-90, 0.8 nM, 24 hours, read-out: IL-6 production reduction
  inhibition at 0.0008 µM: 82.2%
IMR90 fibroblasts, IL-6; Homo sapiens, IMR-90, 800 nM, 24 hours, read-out: IL-6 production reduction
  inhibition at 0.8 µM: 82.9%
[1]; at 0.8 nM and 800 nM
  viability: 100%
IMR90 fibroblasts
  cell toxicity (in words): without cell toxicity

## CN[C@@H]1C[C@H]2O[C@@](C)([C@@H]1OC)n1c3ccccc3c3c4c(c5c6ccccc6n2c5c31)C(=O)NC4 [Staurosporine]
ABL1 F317L; [6]
  pIC50: 6.67
EPHA1; [7]
  pIC50: […]
EPHA5; control inhibitor, Tyr 01, ATP 150 uM
  pIC50: […]
EPHB2; control inhibitor, Tyr 02, ATP 75 uM
  pIC50: […]
TXK; control inhibitor, Tyr 06, ATP 100 uM
  pIC50: […]
ROS1; control inhibitor, Tyr 01, ATP 50 uM
  pIC50: […]
RET; control inhibitor, Tyr 02, ATP 10 uM
  pIC50: […]
RET-V804E; control inhibitor, Tyr 04, ATP 50 uM
  pIC50: 8.64
PTK2B (FAK2); control inhibitor, Tyr 01, ATP 5 uM
  pIC50: 7.92
RET-V804M
  pIC50: 8.99
RET-M918T
  pIC50: 8.42
TNK2 (ACK)
  pIC50: […]

## COc1cc2ncnc(Nc3cccc(Cl)c3)c2cc1OC [Tyrphostin AG1478]
ABL1(wt); [6]
  pIC50: 6.49
BTK; control inhibitor, Tyr 01, ATP 25 uM
  pIC50: 5.74
ABL2 (Arg); [7]
  pIC50: 6.14
SRC; [8]
  pIC50: 5.78
SRC-N1; [8]
  pIC50: 5.98
LCK; [8]
  pIC50: 6.20

## N#CC[C@H](C1CCCC1)n1cc(-c2ncnc3[nH]ccc23)cn1 [ruxolitinib]
JAK2 [3]
  JAK2 selectivity: not selective inhibitors of JAK2 PK
